Holding throughout (assay type): cell-based
Assay [1] addresses T1, SHP2 protein (Homo sapiens, UniProt Q06124).
T1 sequence (Q06124 1-593): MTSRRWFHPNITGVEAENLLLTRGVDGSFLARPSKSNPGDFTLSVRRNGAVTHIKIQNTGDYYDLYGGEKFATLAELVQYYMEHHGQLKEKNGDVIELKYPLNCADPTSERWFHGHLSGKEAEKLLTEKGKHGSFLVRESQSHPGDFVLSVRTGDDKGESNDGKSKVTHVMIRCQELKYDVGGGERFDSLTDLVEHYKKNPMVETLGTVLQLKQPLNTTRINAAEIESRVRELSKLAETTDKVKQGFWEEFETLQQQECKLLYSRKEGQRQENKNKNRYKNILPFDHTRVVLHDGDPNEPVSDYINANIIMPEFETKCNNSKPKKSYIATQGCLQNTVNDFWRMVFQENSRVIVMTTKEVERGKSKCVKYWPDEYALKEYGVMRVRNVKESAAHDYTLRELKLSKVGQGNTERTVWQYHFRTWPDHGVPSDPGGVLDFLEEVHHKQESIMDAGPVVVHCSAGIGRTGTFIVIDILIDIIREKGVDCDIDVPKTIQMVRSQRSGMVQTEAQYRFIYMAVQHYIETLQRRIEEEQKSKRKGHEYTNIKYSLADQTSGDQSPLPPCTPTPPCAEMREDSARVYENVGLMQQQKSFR
Kind of assay: Degradation activity on SHP2 protein in MV-411 cells (Western blot, DC50). On the set-up: endogenous in cells. The settings on record: MV411 cells, 24 hours, read-out: Degradation activity for differenct cell lines MV411 (DC50). The procedure, abridged: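 Western blot of SHP2 (GAPDH loading control, 30 μg protein/lane) in lysates of MV-411 cells exposed 24 h to final compound concentrations of 100, 10, 3, 1, 0.3 and 0.1 nM (0.1% DMSO). Degradation relative to DMSO set at 100%; DC50 derived by curve fitting.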
(In general: A western blot detects proteins with antibodies after separation by electrophoresis.)

Assay [2] concerns the target T1, SHP2 protein. The experiment in a line: Degradation activity on SHP2 protein in NCI-H358 cells (Western blot, DC50). The settings on record: read-out: Degradation activity for differenct cell lines NCI-H358 (DC50). On the set-up: endogenous in cells. As for the experimental part:
(1) MV-411 cells were cultured in the cell culture medium, and then well-growing cells were selected and inoculated in a 12-well plate, with 1 mL/well and 1×10^6 cells/well. The plate was incubated overnight in a 5% CO2 cell incubator at 37° C.
(2) 10 mM storage solution of each drug was prepared using dimethylsulfoxide (DMSO). The stock solution was diluted gradually with DMSO before use, and then 1 μL of the compound solution was added to the cell culture well (to ensure that the DMSO concentration in the culture system was […]), so that the final drug concentration is 100 nM, 10 nM, 3 nM, 1 nM, 0.3 nM, and 0.1 nM. Two wells were set for each concentration. The plate was gently shaken and mixed. Additionally, negative control wells (containing an equal amount of DMSO) and positive control wells were included.
(3) After 24 hours of cultivation, the cells were lysed using RIPA cell lysate, and the proteins were extracted. The protein concentration was measured using a BCA assay kit. 5× concentrated protein buffer was loaded, heated at 100° C. for 5 min, and then the sample was stored at −20° C.
(4) For each well, 30 μg of protein was loaded to polyacrylamide gel for electrophoresis.
(5) The protein was transferred from polyacrylamide gel to PVDF membrane, and sealed at room temperature with 5% skimmed milk for 1 h, which was then incubated with the primary antibodies (Anti-SHP2 rabbit mAb and Anti-GAPDH rabbit mAb) at 4° C. overnight. The membrane was washed three times with TBST solution, 10 minutes for each time. After that, the membrane was incubated with the secondary antibodies (horseradish peroxidase labeled goat anti-rabbit IgG) at room temperature for 2 h, and then washed three times with TBST solution, 10 minutes for each time, followed by exposure.
(6) The images were analyzed with Image J grayscale, and the degradation ratio of protein bands in the test group was calculated, based on the negative control group (DMSO) (100%).
(7) Using the Dose-response-inhibition equation in the data processing software GraphPad Prism 8, the DC50 value was obtained (which represents the drug concentration corresponding to 50% degradation of the target protein).
Using similar methods and different cell lines, the degradation activity of the compound according to the present invention on SHP2 protein of different cell lines was tested under suitable culture conditions.

Assay [3] has as its target T1, SHP2 protein. The experiment in a line: Degradation activity on SHP2 protein in MIA Paca-2 cells (Western blot, DC50). On the set-up: endogenous in cells; host or cells: MIA Paca-2 cells. The note with it: read-out: Degradation activity for differenct cell lines MIA Paca-2 (DC50). The procedure, abridged:
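DC50 is the concentration degrading 50% of SHP2 relative to DMSO control. It was derived by fitting Western blot band densitometry (anti-SHP2, GAPDH reference) from cells exposed 24 h to 0.1–100 nM compound in 0.1% DMSO.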

The term DC50 denotes the concentration at which degradation of the target reaches its halfway point.

A value given as a limit tells only on which side of the number the result lay.

For the compound `CC1(N)CCN(c2cnc(Sc3cccc(NC(=O)CCCCCOC4CC5(CCN(c6ccc(C(=O)NCc7ccc8c(c7)CN(C7CCC(=O)NC7=O)C8=O)cc6F)CC5)C4)c3)cn2)CC1` (centres unmarked) [Compound 176], the DC50 was less than 100 nM in assay [1], 100 to 1000 nM in assay [2] and less than 100 nM in assay [3].

With `Cc1ncsc1-c1ccc([C@H](C)NC(=O)[C@@H]2C[C@@H](O)CN2C(=O)[C@@H](NC(=O)c2cnc(N3CCC(OCCCCCCCC(=O)Nc4cccc(Sc5cnc(N6CCC(C)(N)CC6)cn5)c4)CC3)nc2)C(C)(C)C)cc1` [Compound 78], the 50% degradation concentration (DC50) in assay [1], in assay [2] and in assay [3] was less than 100 nM in each case.

As to `CC1(N)CCN(c2cnc(Sc3cccc(NC(=O)CCCCCCCCN4CC=C(c5ccc(C(=O)NCc6ccc7c(c6)CN(C6CCC(=O)NC6=O)C7=O)nn5)CC4)c3)cn2)CC1` (centres unmarked) [Compound 188], the half-maximal degradation concentration (DC50) in assay [1], in assay [2] and in assay [3] was less than 100 nM in each case.

For `CC1(N)CCN(c2cnc(Sc3cccc(NC(=O)CCCCCCCOC4CCN(c5ncc(C(=O)NCc6ccc7c(c6)CN(C6CCC(=O)NC6=O)C7=O)cn5)CC4)c3)cn2)CC1` (centres unmarked) [Compound 79], the half-maximal degradation concentration (DC50) was less than 100 nM in assay [1], less than 100 nM in assay [2] and 100 to 1000 nM in assay [3].

Regarding `CC1(N)CCN(c2cnc(Sc3cccc(NC(=O)CCCCCCN4CC5(CCN(c6ccc(C(=O)NCc7ccc8c(c7)CN(C7CCC(=O)NC7=O)C8=O)nc6Cl)C5)C4)c3)cn2)CC1` (centres unmarked) [Compound 200], the DC50 in assay [1], in assay [2] and in assay [3] was less than 100 nM throughout.

Turning to `Cc1ncsc1-c1ccc([C@H](C)NC(=O)[C@@H]2C[C@@H](O)CN2C(=O)[C@@H](NC(=O)CCCCCN2CCC3(C2)CN(CCC(=O)Nc2cccc(Sc4cnc(N5CCC(C)(N)CC5)cn4)c2)C3)C(C)(C)C)cc1` [Compound 46], the DC50 in assay [1] is less than 100 nM; in assay [2], more than 1000 nM.

As to `CC1(N)CCN(c2cnc(Sc3cccc(NC(=O)c4ccc(N5CCC(N6CC=C(c7ccc(C(=O)NCc8ccc9c(c8)CN(C8CCC(=O)NC8=O)C9=O)nc7)C6)CC5)c(F)c4)c3)cn2)CC1` (centres unmarked) [Compound 410], the DC50 in assay [2] and in assay [3] was less than 100 nM in each case.

Turning to `CC1(N)CCN(c2cnc(Sc3cccc(NC(=O)CCCCc4ccc(N5CCN(c6ccc(C(=O)NCc7ccc8c(c7)CN(C7CCC(=O)NC7=O)C8=O)nn6)CC5)cc4)c3)cn2)CC1` (centres unmarked) [Compound 244], the DC50 in assay [2] and in assay [3] was less than 100 nM each time.

Turning to `CC1(N)CCN(c2cnc(Sc3cccc(NC(=O)c4ccc(N5CCC(N6CC=C(c7ccc(C(=O)NCc8ccc9c(c8)CN(C8CCC(=O)NC8=O)C9=O)nc7F)CC6)CC5)c(F)c4)c3)cn2)CC1` (centres unmarked) [Compound 467], the half-maximal degradation concentration (DC50) was 100 to 1000 nM in assay [2] and less than 100 nM in assay [3].

With `CC1(N)CCN(c2cnc(Sc3cccc(NC(=O)c4ccc(N5CCC(N6CC=C(c7ccc(C(=O)NCc8ccc9c(c8)CN(C8CCC(=O)NC8=O)C9=O)nc7)CC6)C(F)C5)nc4)c3)cn2)CC1` (centres unmarked) [Compound 409], the DC50 in assay [2] and in assay [3] was less than 100 nM throughout.

For `CC1(N)CCN(c2cnc(Sc3cccc(NC(=O)CCCCCCCCN4CCN(c5ccc(C(=O)NCc6ccc7c(c6)CN(C6CCC(=O)NC6=O)C7=O)cc5)CC4)c3)cn2)CC1` (centres unmarked) [Compound 229], the half-maximal degradation concentration (DC50) in assay [2] and in assay [3] was less than 100 nM each time.

Take `CC1(N)CCN(c2cnc(Sc3cccc(NC(=O)CCCCCCCCN4CCN(c5ccc(C(=O)NCc6ccc7c(c6)CN(C6CCC(=O)NC6=O)C7=O)nc5Cl)CC4C(F)(F)F)c3)cn2)CC1` (centres unmarked) [Compound 227]: the DC50 in assay [2] and in assay [3] was less than 100 nM each time.

In the case of `CC(CCCCCCCC(=O)Nc1cccc(Sc2cnc(N3CCC(C)(N)CC3)cn2)c1)N1CC=C(c2ccc(C(=O)NCc3ccc4c(c3)CN(C3CCC(=O)NC3=O)C4=O)nc2)C(C)(C)C1` (centres unmarked) [Compound 245], the DC50 in assay [2] and in assay [3] was less than 100 nM in each case.

As for `CC1(N)CCN(c2cnc(Sc3cccc(NC(=O)CCCCCCCCN4CC=C(c5ccc(C(=O)NCc6ccc7c(c6)CN(C6CCC(=O)NC6=O)C7=O)nc5)C(C)(C)C4)c3)cn2)CC1` (centres unmarked) [Compound 222], the DC50 in assay [2] and in assay [3] was less than 100 nM throughout.

As to `NC1(CO)CCN(c2cnc(Sc3cccc(NC(=O)c4ccc(N5CCC(N6CC=C(c7ccc(C(=O)NCc8ccc9c(c8)CN(C8CCC(=O)NC8=O)C9=O)nn7)CC6)CC5)cc4)c3)cn2)CC1` (centres unmarked) [Compound 375], the DC50 in assay [2] is less than 100 nM; in assay [3] it was more than 1000 nM.

Regarding `Cc1cc(N2CCC(N3CC=C(c4cnc(C(=O)NCc5ccc6c(c5)CN(C5CCC(=O)NC5=O)C6=O)cc4C)CC3)CC2)ccc1C(=O)Nc1cccc(Sc2cnc(N3CCC(C)(N)CC3)cn2)c1` (centres unmarked) [Compound 457], the DC50 in assay [2] and in assay [3] was less than 100 nM throughout.

On to `CC1(N)CCN(c2cnc(Sc3cccc(NC(=O)c4ccc(N5CCC(N6CC=C(c7cnc(C(=O)NCc8ccc9c(c8)CN(C8CCC(=O)NC8=O)C9=O)cc7Cl)CC6)CC5)nc4)c3)cn2)CC1` (centres unmarked) [Compound 419], for which the DC50 in assay [2] and in assay [3] was less than 100 nM in each case.

Regarding `CC1(N)CCN(c2cnc(Sc3cccc(NC(=O)c4csc(N5CCC(N6CC=C(c7ccc(C(=O)NCc8ccc9c(c8)CN(C8CCC(=O)NC8=O)C9=O)nn7)CC6)CC5)n4)c3)cn2)CC1` (centres unmarked) [Compound 357], the DC50 in assay [2] and in assay [3] was less than 100 nM each time.

Consider `CC1(N)CCN(c2cnc(Sc3cccc(NC(=O)c4ccc(N5CCC(N6CC=C(c7ncc(C(=O)NCc8ccc9c(c8)CN(C8CCC(=O)NC8=O)C9=O)cn7)CC6)CC5)cc4)c3)cn2)CC1` (centres unmarked) [Compound 370], for which the DC50 in assay [2] is less than 100 nM; in assay [3], 100 to 1000 nM.

In the case of `CC1(N)CCN(c2cnc(Sc3cccc(NC(=O)c4ccc(N5CCC(N6CC=C(c7ccc(C(=O)NCc8ccc9c(c8)CN(C8CCC(=O)NC8=O)C9=O)nc7Cl)CC6)CC5)cc4)c3)cn2)CC1` (centres unmarked) [Compound 398], the DC50 in assay [2] and in assay [3] was less than 100 nM throughout.

For the compound `CC1(N)CCN(c2cnc(Sc3cccc(NC(=O)c4ccc(N5CCC(N6CC=C(c7cnc(C(=O)NCc8ccc9c(c8)CN(C8CCC(=O)NC8=O)C9=O)cc7Cl)CC6)CC5)c(F)c4)c3)cn2)CC1` (centres unmarked) [Compound 418], the DC50 in assay [2] and in assay [3] was less than 100 nM in each case.

Take `CC1(N)CCN(c2cnc(Sc3cccc(NC(=O)CCCCCCCCN4C[C@@H]5C[C@H]4CN5c4ccc(C(=O)NCc5ccc6c(c5)CN(C5CCC(=O)NC5=O)C6=O)nn4)c3)cn2)CC1` (some centres unmarked) [Compound 237]: the 50% degradation concentration (DC50) in assay [2] and in assay [3] was less than 100 nM each time.

As for `CC1(N)CCN(c2cnc(Sc3cccc(NC(=O)c4ccc(N5CCC(N6CC=C(c7ccc(C(=O)NCc8ccc9c(c8)CN(C8CCC(=O)NC8=O)C9=O)cc7)CC6)CC5)cc4)c3)cn2)CC1` (centres unmarked) [Compound 446], the half-maximal degradation concentration (DC50) in assay [2] and in assay [3] was less than 100 nM in each case.

In the case of `CC1(N)CCN(c2cnc(Sc3cccc(NC(=O)CCCCCCCCN4CCC(c5ccc(C(=O)NCc6ccc7c(c6)CN(C6CCC(=O)NC6=O)C7=O)nn5)CC4)c3)cn2)CC1` (centres unmarked) [Compound 218], the DC50 in assay [2] and in assay [3] was less than 100 nM each time.

Values taken from patent US20240383908A1, “SYNTHESIS AND APPLICATION OF PHOSPHATASE DEGRADER” (HINOVA PHARMACEUTICALS INC., priority 2021, published 2024).
